Reference: the supplement of paper PMC6045584
± gives the standard deviation of the averaged measurements.

Legend:
DECITABINE = compound: Nc1ncn([C@H]2C[C@H](O)[C@@H](CO)O2)c(=O)n1 [DECITABINE]; experiment: surviving fraction relative to DMSO-only wells; higher = less growth inhibition; settings: exposure time: 5 days
How it was run: (§1)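 In 384-well plates, 250–500 log-phase tumour cells per well were given 24 hours before five days of continuous exposure to inhibitors at 0.5, 1, 5, 10, 50, 100, 500 and 1000 nM. Surviving fraction is luminescence from CellTiter-Glo, normalised to the median of wells containing DMSO alone. Reading took place after 10 minutes at room temperature.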

DOXORUBICIN = compound: COc1cccc2c1C(=O)c1c(O)c3c(c(O)c1C2=O)C[C@@](O)(C(=O)CO)C[C@@H]3O[C@H]1C[C@H](N)[C@H](O)[C@H](C)O1 [DOXORUBICIN]; experiment: as above; settings: exposure time: 5 days
How it was run: as §1

Test System | surviving fraction (DECITABINE; 0.5 nM) | surviving fraction (DECITABINE; 1 nM) | surviving fraction (DECITABINE; 5 nM) | surviving fraction (DECITABINE; 10 nM) | surviving fraction (DECITABINE; 50 nM) | surviving fraction (DECITABINE; 100 nM) | surviving fraction (DECITABINE; 500 nM) | surviving fraction (DECITABINE; 1000 nM) | surviving fraction (DOXORUBICIN; 0.5 nM) | surviving fraction (DOXORUBICIN; 1 nM) | surviving fraction (DOXORUBICIN; 5 nM) | surviving fraction (DOXORUBICIN; 10 nM) | surviving fraction (DOXORUBICIN; 50 nM) | surviving fraction (DOXORUBICIN; 100 nM) | surviving fraction (DOXORUBICIN; 500 nM) | surviving fraction (DOXORUBICIN; 1000 nM)
CCK81 LARGE INTESTINE | 0.759 ± 0.099 | 0.761 ± 0.034 | 0.578 ± 0.11 | 0.707 ± 0.12 | 0.367 ± 0.058 | 0.348 ± 0.035 | 0.308 ± 0.035 | 0.286 ± 0.094 | – | – | – | – | – | – | – | –
G292 BONE | 0.958 ± 0.057 | 0.953 ± 0.026 | 0.924 ± 0.037 | 0.922 ± 0.025 | 0.711 ± 0.0099 | 0.678 ± 0.043 | 0.571 ± 0.039 | 0.543 ± 0.026 | 1.03 ± 0.065 | 1 ± 0.037 | 0.816 ± 0.052 | 0.601 ± 0.059 | 0.388 ± 0.031 | 0.338 ± 0.0043 | 0.108 ± 0.006 | 0.0887 ± 0.0033
HCC38 BREAST | 1.37 ± 0.092 | 1.14 ± 0.13 | 1.13 ± 0.098 | 0.937 ± 0.044 | 0.781 ± 0.019 | 0.656 ± 0.027 | 0.441 ± 0.0081 | 0.409 ± 0.064 | 1.23 ± 0.28 | 1.19 ± 0.18 | 1.1 ± 0.23 | 0.759 ± 0.14 | 0.301 ± 0.034 | 0.0897 ± 0.0085 | 0.0433 ± 0.0025 | 0.044 ± 0.0079
HCC70 BREAST | 1.07 ± 0.12 | 0.991 ± 0.14 | 1.1 ± 0.05 | 1.02 ± 0.092 | 0.967 ± 0.024 | 0.956 ± 0.087 | 0.844 ± 0.026 | 0.679 ± 0.076 | 0.966 ± 0.06 | 0.939 ± 0.021 | 0.986 ± 0.15 | 0.9 ± 0.13 | 0.33 ± 0.013 | 0.489 ± 0.045 | 0.15 ± 0.022 | 0.0553 ± 0.017
HMLE3 BREAST | 1.1 ± 0.049 | 1.03 ± 0.082 | 1.14 ± 0.03 | 1.14 ± 0.058 | 0.95 ± 0.12 | 0.922 ± 0.051 | 0.605 ± 0.055 | 0.551 ± 0.054 | 0.941 ± 0.088 | 1.04 ± 0.046 | 0.744 ± 0.081 | 0.405 ± 0.0065 | 0.231 ± 0.022 | 0.069 ± 0.018 | 0.02 ± 0.001 | 0.0223 ± 0.00058
HMT3552 BREAST | 1.06 ± 0.029 | 1.024 ± 0.01 | 1.09 ± 0.05 | 1.02 ± 0.057 | 1.27 ± 0.029 | 1.21 ± 0.037 | 1.18 ± 0.06 | 1.14 ± 0.028 | 1.09 | 0.911 | 0.949 | 0.817 | 0.154 | 0.167 | 0.099 | 0.027
HS57T BREAST | 0.976 ± 0.049 | 0.99 ± 0.026 | 1.06 ± 0.027 | 0.972 ± 0.022 | 0.923 ± 0.086 | 0.904 ± 0.091 | 0.767 ± 0.045 | 0.696 ± 0.078 | 0.98 ± 0.066 | 0.906 ± 0.1 | 0.478 ± 0.09 | 0.318 ± 0.015 | 0.353 ± 0.045 | 0.124 ± 0.015 | 0.0277 ± 0.0011 | 0.0273 ± 0.0011
HS578T BREAST | 0.882 ± 0.16 | 0.838 ± 0.018 | 0.812 ± 0.079 | 0.837 ± 0.077 | 0.98 ± 0.071 | 0.943 ± 0.2 | 0.905 ± 0.08 | 1.02 ± 0.064 | 0.922 ± 0.097 | 0.958 ± 0.092 | 0.838 ± 0.1 | 0.693 ± 0.013 | 0.483 ± 0.046 | 0.489 ± 0.066 | 0.094 ± 0.02 | 0.037 ± 0.0079
